Measurements: patent US20230404080A1, “A METHOD OF CONTROLLING HERBICIDE RESISTANT WEEDS” (UPL Corporation Limited, priority 2020, published 2023)

System: Spermacoce verticillate
Assay: Example 1 trial: herbicidal combinations on Spermacoce verticillate resistant to Group 4 and Group 9 herbicides
Type: in vivo
Details: for % weed control at 14 DA-B: 14 days after sequential application B, B applied 15 days after A, scale 0 (no damage) to 100 (complete destruction) vs untreated control, rates per Table 1; for control of S. verticillate weeds (in words): Example 1, sequential application used after glyphosate+triclopyr at 15 DA-A
Experimental: Trials were carried out for evaluating the effect of herbicidal combinations on target weeds of Spermacoce verticillate resistant to herbicides belonging to Group 4 and Group 9. The evaluation for the damage on undesired weeds caused by the present compositions was carried out using a scale from 0 to 100%, compared to the untreated control plants. Here, 0 means no damage and 100 means complete destruction of weed. In the following experiments, the herbicidal activity for the herbicidal combinations was assessed till 28 days after treatment (application A).
In this trial, time T was application time, application A was performed first and at 15 days, application B was performed out in treatments with sequential application. The tested herbicides were sourced from the formulations readily available.

**Q.** How did the “% weed control at 14 DA-B” value turn out when `O=C(O)CNCP(=O)(O)O` [Glyphosate (A), N-(phosphonomethyl)glycine] was run?
**A.** 22%

**Q.** And the “control of S. verticillate weeds (in words)” value?
**A.** do not efficiently control

**Q.** `O=C(O)COc1nc(Cl)c(Cl)cc1Cl` [Triclopyr (A), Triclopyr] was tested. Which “% weed control at 14 DA-B” value did it give?
**A.** 42.5%

**Q.** And the “control of S. verticillate weeds (in words)” value?
**A.** do not efficiently control
